{
  "source": "patent US9034846B2",
  "about": "“Use of cyclodextrin for treatment and prevention of bronchial inflammatory diseases” (UNIVERSITE DE LIEGE, priority 2004, dated 2015)",
  "key": {"[1]": {"tested_on": "CXCL-1", "test": "CXCL-1 ELISA in lung protein extracts, OVA-induced inflammation model", "format": "in vivo, mouse", "conditions": "aerosolized 15 mM, vs placebo-exposed mice, FIG. 12", "method": "In ovalbumin (OVA)-induced inflammation model, mice were immunized by intraperitoneal injection of OVA (10 μg) (Sigma Aldrich, Schnelldorf, Germany) and aluminium hydroxyde on days 0 and 7. From days 21 to 25, mice were exposed to inhalation of 1% OVA or PBS (phosphate buffer saline) for 30 minutes. Airway hyperresponsiveness was measured on day 26 before sacrifice. Mice were either exposed to aerosolized hydroxypropyl-beta-cyclodextrin (15 mM) or PBS for […] 6 hours before allergen exposure.\nAfter sacrifice, thorax was opened and the right lungs were excised and snap frozen in liquid nitrogen for protein extraction. The left lung was insufflated at constant pressure with 4% paraformaldehyde and embedded in paraffin for further histological analysis. A peribronchial inflammation score was applied on each hematoxylin-eosin stained slide as previously reported (Cataldo et al Am J Pathol 2002). A value from 0 to 2 was adjudged to each bronchus. […] Six bronchi per mice were counted and statistical analysis was performed by using GraphPad Program. […] ELISA for CXCL-1 on lung protein extracts were assessed using antibodies from R&D Systems and the R&D Duoset® Elisa Development kit (R&D Systems, Minneapolis, Minn., USA)."}, "[2]": {"tested_on": "OVA exposed mice", "test": "Peribronchial eosinophil infiltration (Congo Red), OVA mouse model", "format": "in vivo", "conditions": "FIG. 3", "method": "(§1) In order to study modulation of airway inflammation, males BALB/c mice of 6 to 8 weeks old were sensitized by intraperitoneal injection of 10 μg ovalbumin (OVA) (Sigma Aldrich, Schnelldorf, Germany) emulsified in aluminum hydroxyde (AlumInject; Perbio, Erembodegem, Belgium) on days 1 and 8. Mice were subsequently exposed to allergens by daily inhalation of an aerosol of OVA 1%, for 30 minutes, generated by ultrasonic nebulizer (Devilbiss 2000), from day 21 to 27. Mice were subjected to inhalation of β-CD, HP-β-CD HP 1, 7.5, 50 mM and HP-β-CD 50 mM 30 minutes before OVA inhalation. Mice were sacrificed performed on day 28 as previously reported by Cataldo and al in Am. J. Pathol 2002; 161(2):491-498.\nAfter BAL, the thorax was opened and the left main bronchus was clamped. The left lung was excised and frozen immediately at −80° C. for protein and mRNA extraction. The right lung was infused with 4 ml paraformaldehyde 4%, embedded in paraffin and used for histology. Sections of 5 μm thickness were cut off from paraffin and were stained with haematoxylin-eosin. The extent of peribronchial inflammation was estimated by a score calculated by quantification of peribronchial inflammatory cells, as previously described by Cataldo D D, Tournoy K G, Vermaelen K et al. in Am J Pathol 2002; 161(2):491-498. A value of 0 was adjudged when no inflammation was detectable, a value of 1 when there was occasionally inflammatory cells, a value of 2 when most bronchi were surrounded by a thin layer (1 to 5 cells) of inflammatory cells and a value of 3 when most bronchi were surrounded by a thick layer (>5 cells) of inflammatory cells. Since 5-7 randomly selected tissue sections per mouse were scored, inflammation scores are expressed as a mean value and can be compared between groups. After Congo Red staining, the eosinophilic infiltration in the airway walls was quantified by manual count and reported to the perimeter of epithelial basement membrane defining an eosinophilic inflammatory score."}, "[3]": {"tested_on": "LPS-induced peribronchial inflammation", "test": "Peribronchial inflammation score, LPS-induced inflammation model", "format": "in vivo, mouse", "conditions": "aerosolized 15 mM, vs placebo, FIG. 14", "method": "In lipopolysaccharide (LPS)-induced inflammation model, mice were exposed to 3 μg LPS diluted in 100 μl of PBS or PBS (phosphate buffer saline) only administered by direct tracheal instillations at day 1 and 5 of the protocol. Mice were daily exposed either to aerosolized hydroxypropyl-beta-cyclodextrin (15 mM) or PBS for 30 min from day 0 to 5 (6 hours after LPS or sham exposure at days 1 and 5). Mice were sacrificed at day 6.\nAfter sacrifice, thorax was opened and the right lungs were excised and snap frozen in liquid nitrogen for protein extraction. The left lung was insufflated at constant pressure with 4% paraformaldehyde and embedded in paraffin for further histological analysis. A peribronchial inflammation score was applied on each hematoxylin-eosin stained slide as previously reported (Cataldo et al Am J Pathol 2002). A value from 0 to 2 was adjudged to each bronchus. Score of 0 corresponded to bronchi without inflammation; score 1 to occasional mononuclear cells observed around bronchi, and score 2 to 1 to 5 layer(s) of inflammatory cells around bronchi. Six bronchi per mice were counted and statistical analysis was performed by using GraphPad Program. […] ELISA for CXCL-1 on lung protein extracts were assessed using antibodies from R&D Systems and the R&D Duoset® Elisa Development kit (R&D Systems, Minneapolis, Minn., USA)."}, "[4]": {"tested_on": "OVA exposed mice", "test": "Bronchoalveolar lavage differential cell counts, OVA mouse model of asthma", "format": "in vivo", "conditions": "for Eosinophils (%) in BAL / Epithelial cells (%) in BAL / Lymphocytes (%) in BAL / Macrophages (%) in BAL / Neutrophils (%) in BAL / Total cells (10^4/ml) in BAL: Table 2", "method": "as §1\nImmediately after assessment of airway responsiveness, and 24 hours after the last allergen exposure.\nMices were sacrificed and a bronchoalveolar lavage was performed using 4×1 ml PBS-EDTA 0.05 mM (Calbiochem, Darmstadt, Germany) as previously described by Cataldo D D, Tournoy K G, Vermaelen K et al. in Am J Pathol 2002; 161(2):491-498. Cells were recovered by gentle manual aspiration. After centrifugation of bronchoalveolar fluid (BALF) (1200 rpm for 10 minutes, at 4° C.), the supernatant was frozen at −80° C. for protein assessment and the cell pellet was resuspended in 1 ml PBS-EDTA 0.05 mM. The differential cell counts were performed on cytocentrifuged preparations (Cytospin) after staining with Diff-Quick (Dade, Belgium)."}},
  "data": [
    {"substance": "hydroxypropyl-βcyclodextrin [HP-β-CD]", "values": [
      {"measurement": "Levels of CXCL-1 in lung protein extracts", "setting": "[1]", "value": "significantly decreased"},
      {"measurement": "peribronchial eosinophil infiltration", "setting": "[2]; 50 mM", "value": "decrease reached statistical significance"},
      {"measurement": "peribronchial eosinophil infiltration", "setting": "[2]; 1 and 7.5 mM", "value": "decrease reached statistical significance"},
      {"measurement": "Peribronchial inflammation", "setting": "[3]", "value": "significantly lower"},
      {"measurement": "BAL eosinophils", "setting": "[4]; 1, 7.5 and 50 mM inhalation, FIG. 1", "value": "dose dependent decrease"},
      {"measurement": "Eosinophils (%) in BAL", "setting": "[4]; 1 mM", "value": "34.2 ± 7.705", "unit": "%"},
      {"measurement": "Epithelial cells (%) in BAL", "setting": "[4]; 1 mM", "value": "25.08 ± 3.413", "unit": "%"},
      {"measurement": "Lymphocytes (%) in BAL", "setting": "[4]; 1 mM", "value": "0.48 ± 0.1869", "unit": "%"},
      {"measurement": "Macrophages (%) in BAL", "setting": "[4]; 1 mM", "value": "39.75 ± 5.427", "unit": "%"},
      {"measurement": "Neutrophils (%) in BAL", "setting": "[4]; 1 mM", "value": "0.36 ± 0.1563", "unit": "%"},
      {"measurement": "Total cells (10^4/ml) in BAL", "setting": "[4]; 1 mM", "value": "74.92 ± 14.396 10^4/ml"},
      {"measurement": "Eosinophils (%) in BAL", "setting": "[4]; 10 mM", "value": "27.24 ± 4.98", "unit": "%"},
      {"measurement": "Epithelial cells (%) in BAL", "setting": "[4]; 10 mM", "value": "34.44 ± 3.723", "unit": "%"},
      {"measurement": "Lymphocytes (%) in BAL", "setting": "[4]; 10 mM", "value": "0.21 ± 0.08571", "unit": "%"},
      {"measurement": "Macrophages (%) in BAL", "setting": "[4]; 10 mM", "value": "37.114 ± 3.878", "unit": "%"},
      {"measurement": "Neutrophils (%) in BAL", "setting": "[4]; 10 mM", "value": "0.83 ± 0.5838", "unit": "%"},
      {"measurement": "Total cells (10^4/ml) in BAL", "setting": "[4]; 10 mM", "value": "114.43 ± 33.245 10^4/ml"},
      {"measurement": "Eosinophils (%) in BAL", "setting": "[4]; 50 mM", "value": "12.18 ± 4.366", "unit": "%"},
      {"measurement": "Epithelial cells (%) in BAL", "setting": "[4]; 50 mM", "value": "45.04 ± 5.534", "unit": "%"},
      {"measurement": "Lymphocytes (%) in BAL", "setting": "[4]; 50 mM", "value": "0.12 ± 0.12", "unit": "%"},
      {"measurement": "Macrophages (%) in BAL", "setting": "[4]; 50 mM", "value": "41.86 ± 9.043", "unit": "%"},
      {"measurement": "Neutrophils (%) in BAL", "setting": "[4]; 50 mM", "value": "0.72 ± 0.3992", "unit": "%"},
      {"measurement": "Total cells (10^4/ml) in BAL", "setting": "[4]; 50 mM", "value": "37.33 ± 10.683 10^4/ml"},
      {"measurement": "BAL eosinophil counts", "setting": "[4]; after allergen exposure, inhalation at 50 mM, FIG. 1", "value": "significantly decreased"},
      {"measurement": "Other inflammatory cells in the BAL", "setting": "[4]; after inhalation, compared to placebo", "value": "not present in different amounts"}
    ]}
  ]
}
